One assay addresses T1, Peregrin (Homo sapiens) (UniProt P55201).
T1 sequence (whole entry): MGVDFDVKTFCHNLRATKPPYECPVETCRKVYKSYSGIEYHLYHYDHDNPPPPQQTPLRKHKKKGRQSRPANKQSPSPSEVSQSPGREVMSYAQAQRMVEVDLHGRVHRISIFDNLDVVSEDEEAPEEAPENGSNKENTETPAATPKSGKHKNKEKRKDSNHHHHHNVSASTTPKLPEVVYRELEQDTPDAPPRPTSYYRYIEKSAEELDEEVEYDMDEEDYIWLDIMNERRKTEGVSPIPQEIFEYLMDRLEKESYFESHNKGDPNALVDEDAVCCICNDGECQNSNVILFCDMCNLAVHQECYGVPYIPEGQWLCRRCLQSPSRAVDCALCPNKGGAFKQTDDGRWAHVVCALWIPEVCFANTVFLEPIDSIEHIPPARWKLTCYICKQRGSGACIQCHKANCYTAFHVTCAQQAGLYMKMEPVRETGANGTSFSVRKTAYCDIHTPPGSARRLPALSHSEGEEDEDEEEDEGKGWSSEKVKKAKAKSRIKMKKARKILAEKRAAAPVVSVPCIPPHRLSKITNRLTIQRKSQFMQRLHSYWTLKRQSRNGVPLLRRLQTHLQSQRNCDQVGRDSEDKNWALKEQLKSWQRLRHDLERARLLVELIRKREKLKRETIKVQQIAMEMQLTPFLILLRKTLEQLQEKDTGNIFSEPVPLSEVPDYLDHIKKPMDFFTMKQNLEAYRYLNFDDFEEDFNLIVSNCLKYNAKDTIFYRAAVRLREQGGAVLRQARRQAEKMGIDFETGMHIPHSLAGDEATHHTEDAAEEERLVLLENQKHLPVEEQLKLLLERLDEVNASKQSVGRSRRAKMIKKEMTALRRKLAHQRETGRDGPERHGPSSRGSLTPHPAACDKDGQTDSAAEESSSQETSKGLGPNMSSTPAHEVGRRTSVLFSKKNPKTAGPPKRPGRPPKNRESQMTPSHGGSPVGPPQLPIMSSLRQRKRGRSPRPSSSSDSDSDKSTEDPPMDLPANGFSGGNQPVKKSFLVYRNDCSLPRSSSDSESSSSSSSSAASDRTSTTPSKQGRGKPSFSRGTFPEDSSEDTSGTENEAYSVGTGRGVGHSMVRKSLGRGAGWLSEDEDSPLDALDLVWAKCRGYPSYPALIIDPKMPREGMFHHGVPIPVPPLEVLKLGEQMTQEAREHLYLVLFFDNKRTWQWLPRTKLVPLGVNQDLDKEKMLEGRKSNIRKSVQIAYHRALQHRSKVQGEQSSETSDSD
The following applies: Compound concentration 20.0 uM, Protein concentration 2.0 uM, Result type QC Liability.

For assay [1], the target named is Fibroblast growth factor receptor 3 (Homo sapiens) (UniProt P22607). The following applies: Compound concentration 20.0 uM, Protein concentration 2.0 uM, Result type QC Liability.
Sequence of Fibroblast growth factor receptor 3 (Homo sapiens) (P22607 23-806 limits assumed): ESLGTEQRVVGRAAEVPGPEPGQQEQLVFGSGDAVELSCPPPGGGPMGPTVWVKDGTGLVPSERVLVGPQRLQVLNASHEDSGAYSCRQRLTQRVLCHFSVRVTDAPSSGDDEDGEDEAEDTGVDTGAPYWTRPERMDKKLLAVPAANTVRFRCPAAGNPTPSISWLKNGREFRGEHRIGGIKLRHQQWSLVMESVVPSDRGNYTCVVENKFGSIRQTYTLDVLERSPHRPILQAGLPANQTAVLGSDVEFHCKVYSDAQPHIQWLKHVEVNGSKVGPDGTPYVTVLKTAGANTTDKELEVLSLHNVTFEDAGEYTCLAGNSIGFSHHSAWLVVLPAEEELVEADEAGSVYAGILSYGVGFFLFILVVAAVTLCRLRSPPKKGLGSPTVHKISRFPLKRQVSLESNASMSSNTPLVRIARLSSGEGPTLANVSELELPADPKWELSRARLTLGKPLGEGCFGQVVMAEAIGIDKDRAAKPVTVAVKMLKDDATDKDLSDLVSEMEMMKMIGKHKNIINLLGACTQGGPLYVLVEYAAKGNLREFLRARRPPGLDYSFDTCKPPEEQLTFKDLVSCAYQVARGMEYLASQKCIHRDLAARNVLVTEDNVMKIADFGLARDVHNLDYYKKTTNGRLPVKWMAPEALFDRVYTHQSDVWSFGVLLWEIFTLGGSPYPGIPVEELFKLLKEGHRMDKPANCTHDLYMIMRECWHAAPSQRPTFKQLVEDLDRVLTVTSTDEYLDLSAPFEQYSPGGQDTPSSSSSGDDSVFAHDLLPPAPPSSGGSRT
Description: Thermal Shift Assay. Domain: start/stop: P449-E759

In general, ΔTm refers to the shift of the melting midpoint relative to a reference. Regarding `COc1ccc(F)c(F)c1C(=O)c1cnc(NC2CCN(S(C)(=O)=O)CC2)nc1N`, the ΔTm on Peregrin (Homo sapiens) was -0.92 °C; in assay [1] it was 1.01 °C.
For `Cn1ccc(Cn2cnc(-c3ccc(F)cc3)c2-c2ccnc3[nH]ccc23)n1`, the ΔTm was -1.13 °C on Peregrin (Homo sapiens) and 0.54 °C in assay [1].
As to `CC(C)(O)c1coc(S(=O)(=O)NC(=O)Nc2c3c(cc4c2CCC4)CCC3)c1`, the thermal shift (ΔTm) on Peregrin (Homo sapiens) is -2.87 °C; in assay [1], 0.84 °C.
For `CS(=O)(=O)NC(=O)CCC/C=C\C[C@H]1C(=O)C[C@@H](O)[C@@H]1/C=C/[C@@H](O)COc1ccccc1`, the ΔTm on Peregrin (Homo sapiens) was -1.73 °C; in assay [1], 0.49 °C.
Turning to `CC(C)S(=O)(=O)c1ccccc1Nc1nc(N[C@@H]2CCCN(CCCCCCCNC(=O)COc3cccc4c3C(=O)N(C3CCC(=O)NC3=O)C4=O)C2)ncc1Cl` (stereo partly drawn), the ΔTm on Peregrin (Homo sapiens) came to 0.63 °C; in assay [1], 7.81 °C.
Take `C#Cc1cnc2[nH]cc(-c3cccc4c3CCN4C(=O)[C@@H]3CCCN3C#N)c2c1`: the ΔTm on Peregrin (Homo sapiens) was -12.9 °C; in assay [1], 3.57 °C.
As for `COc1cc2c(cc1CC=C(C)C)C(=O)C[C@@H](c1ccc(O)cc1)O2`, the ΔTm came out at 1.25 °C on Peregrin (Homo sapiens) and 2.85 °C in assay [1].
Consider `C[C@@H]1OCC2(CCN(c3cnc(Sc4ccnc(N)c4Cl)c(N)n3)CC2)[C@@H]1N`, for which the ΔTm at Peregrin (Homo sapiens) is -1.53 °C; in assay [1], 0.48 °C.
On the same counts, the results for `Cc1ccc(-n2nc(C(C)(C)C)cc2NC(=O)Nc2ccccc2F)cc1` are -0.3 °C and 2.28 °C.
For the compound `N=C(N)Nc1cc(C2CCNCC2)cc(C(F)(F)F)c1`, the ΔTm is -2.37 °C at Peregrin (Homo sapiens) and 0.42 °C in assay [1].
On the same counts, the results for `NC(=O)C1CCCc2c1[nH]c1ccc(Cl)cc21` (stereo not drawn) are -0.12 °C and 0.98 °C.
In the case of `c1ccc(C2CCN(c3cnc4c(N5CCOCC5)nccn34)CC2)cc1`, the ΔTm on Peregrin (Homo sapiens) is -0.86 °C; in assay [1] it was 0.73 °C.
For `Cc1nsc(Nc2cnc(C(F)(F)F)cn2)c1C(=O)Nc1ccc(O[C@H]2CCCN(CC(F)(F)F)C2)nc1`, the ΔTm on Peregrin (Homo sapiens) was -3.38 °C; in assay [1], 1.39 °C.
As for `Cc1cn([C@H](C)CC#N)c(=O)c2cc(Cn3nc(C(F)F)cc3Cl)nn12`, the ΔTm at Peregrin (Homo sapiens) is -1.09 °C; in assay [1] it was 0.78 °C.
For `Cc1nn(C)c(COc2ccc(N3CCN(S(=O)(=O)N(C)C)CC3)cc2)c1-c1cccc2c(CCCOc3cccc4ccccc34)c(C(=O)O)n(CCN3CCOCC3)c12` the same measures were -2.4 °C and 0.47 °C.
With `COc1cc(CN(CCN)C(=O)N[C@@H](C)c2ccccc2)ccc1OCc1ccccc1`, the ΔTm is -2.05 °C at Peregrin (Homo sapiens) and 0.47 °C in assay [1].
Take `N[C@@H](CC(=O)O)Cn1nnc(-c2ccc(Oc3ncc(Cl)cc3F)cc2)n1`: the ΔTm on Peregrin (Homo sapiens) was -3.09 °C; in assay [1] it was 0.43 °C.
In the case of `C[C@@]1(Cc2ccc(C#N)cc2)C(=O)N(c2cc(Cl)cc(Cl)c2)c2ncc(C(=O)NC3(c4nc(C5CCC5)no4)CC3)n21`, the ΔTm was 3.75 °C on Peregrin (Homo sapiens) and 3.32 °C in assay [1].
Regarding `Cc1cccc(-c2[nH]c(CNc3ccccc3F)nc2-c2ccc3ncnn3c2)n1`, the ΔTm worked out at 0.68 °C at Peregrin (Homo sapiens) and 4.08 °C in assay [1].
In the case of `CN1CCN(C(=O)c2ccc3cc2OCCOCCNc2ccn4ncc-3c4n2)CC1`, the values for the thermal shift (ΔTm) (on Peregrin (Homo sapiens); in assay [1]) were -1.15 °C and 2.23 °C, respectively.
In the case of `CNc1nc(-c2ccc3c(N)n[nH]c3c2)cc(N2C[C@@H](C(=O)NC3CCCCC3)CC[C@H]2C)n1`, the ΔTm at Peregrin (Homo sapiens) is -2.05 °C; in assay [1], 2.13 °C.
In the case of `CC1(C)CCN(C(=O)C2CN(c3c4c(nc5ccnn35)CCNCC4)C2)C1`, the ΔTm at Peregrin (Homo sapiens) is -2.26 °C; in assay [1], 0.72 °C.
On the same counts, the results for `Cc1n[nH]c2ncc(C(=O)N3CCC[C@H]3c3ccc(Cl)cc3)cc12` are -1.04 °C and 0.54 °C.
On to `Nc1ncnc2c1c(COc1cccc(Cl)c1)nn2C1CCOCC1`, for which the ΔTm was -1.86 °C on Peregrin (Homo sapiens) and 1.63 °C in assay [1].
With `CC(=O)N1CCN([C@H]2CCC[C@@H](NC(=O)c3cc4c(F)ccc(C)c4[nH]3)C2)CC1`, the ΔTm on Peregrin (Homo sapiens) was -1.84 °C; in assay [1], 0.6 °C.
Consider `Cc1ncsc1-c1ccc(CNC(=O)[C@@H]2C[C@H](O)CN2C(=O)[C@@H](NC(=O)C2(F)CC2)C(C)(C)C)c(OCCOc2ccc(CN3CCN(c4cc(-c5ccccc5O)nnc4N)CC3)cc2)c1` (relative stereo), for which the thermal shift (ΔTm) at Peregrin (Homo sapiens) is 4.18 °C; in assay [1], -0.13 °C.
In the case of `OC(c1ccc(-c2ccc(CN3CCN(Cc4ccncc4)CC3)cc2)c(F)c1)(C(F)(F)F)C(F)(F)F`, the ΔTm on Peregrin (Homo sapiens) was -2.07 °C; in assay [1], 0.64 °C.
With `CN1CCN(C(=O)Cc2ccc(N/C(=C3\C(=O)Nc4cc(Cl)ccc43)c3ccccc3)cc2)CC1`, the ΔTm was -2.46 °C on Peregrin (Homo sapiens) and 5.68 °C in assay [1].
For `Cc1nc(-c2ccc(C(F)(F)F)cc2)sc1C(=O)NCc1ccc(OC(C)(C)C(=O)O)cc1`, the ΔTm was -1.41 °C at Peregrin (Homo sapiens) and 0.71 °C in assay [1].
As for `O=C1CCC(N2Cc3cc(CNC(=O)C(F)(F)c4ccc(Cl)cc4)ccc3C2=O)C(=O)N1` (stereo not drawn), the ΔTm at Peregrin (Homo sapiens) was -1.67 °C; in assay [1], 0.44 °C.
For the compound `O=c1[nH]c(CS[C@H]2CC[C@H](O)CC2)nc2cc(OCC3CC3)cc(F)c12`, the ΔTm at Peregrin (Homo sapiens) is -0.45 °C; in assay [1], 0.65 °C.
As to `CCn1c(CNC(=O)c2ncc(C)nc2N)[n+](CC)c2ccc(C(=O)N(C)CCN(C)C)cc21`, the ΔTm on Peregrin (Homo sapiens) was -1.78 °C; in assay [1], 0.52 °C.
In the case of `CN1CCN(c2ccc(/C=C(\C#N)c3ccccc3Br)cc2)CC1`, the ΔTm on Peregrin (Homo sapiens) was -2.48 °C; in assay [1], 1.23 °C.
`CCS(=O)(=O)c1ccc(OC)c(Nc2ncc(-c3cccc(F)c3)o2)c1`: the ΔTm on Peregrin (Homo sapiens) was -1.63 °C; in assay [1], 3.6 °C.
As to `CNC(=O)c1nnc(NC(=O)C2CC2)cc1Nc1cccc(-c2ncn(C)n2)c1OC`, the ΔTm is -1.46 °C on Peregrin (Homo sapiens) (tested as the 2H-labelled form) and 1.05 °C in assay [1] (tested as the 2H-labelled form).
In the case of `CN[C@@H](C)C(=O)N[C@H](C(=O)N1CCC[C@H]1C(=O)N[C@@H]1CCCc2ccccc21)C1CCCCC1`, the ΔTm on Peregrin (Homo sapiens) is -1.87 °C; in assay [1], 0.75 °C.
For the compound `NC(=O)OC[C@H](NC(=O)Cn1nc(-c2ccc(Cl)cc2)n(C[C@H](O)C(F)(F)F)c1=O)c1cccc(C(F)(F)F)c1`, the figures for the ΔTm (at Peregrin (Homo sapiens); in assay [1]) were -3.24 °C and 1.19 °C, respectively.
Take `Cc1cc(Cn2c(N3CC4(CNC4)C3)nc3cc(Cl)cc(N4CCN(C)CC4)c32)cc(C)c1F`: the ΔTm on Peregrin (Homo sapiens) was -2.07 °C; in assay [1], 1.32 °C.
Turning to `COc1ccc2c(O[C@@H]3C[C@H]4C(=O)N[C@]5(C(=O)O)CC5/C=C\CCCCC[C@H](NC(=O)OC5CCCC5)C(=O)N4C3)cc(-c3csc(NC(=O)C(C)C)n3)nc2c1C` (stereo partly drawn), the ΔTm is -1.17 °C [middle of 4 runs] on Peregrin (Homo sapiens) and 1.07 °C [middle of 4 runs] in assay [1].
As to `Cc1csc(-c2nnc(Nc3ccc(Oc4ncccc4-c4ccnc(N)n4)cc3)c3ccccc23)c1`, the ΔTm is -5.77 °C at Peregrin (Homo sapiens) and -1.73 °C in assay [1].
On to `CN(CCCCCCC1=C(c2cc(F)cc(F)c2)CCCc2cc(O)ccc21)CCCCS(=O)(=O)CCCC(F)(F)F`, for which the ΔTm at Peregrin (Homo sapiens) is -1.47 °C; in assay [1], 0.68 °C.
Turning to `O=C(CNCc1cc2ccccc2[nH]1)N[C@H]1CC[C@@H](c2nc3ccccc3[nH]2)CC1`, the ΔTm stood at 0.07 °C on Peregrin (Homo sapiens) and 0.46 °C in assay [1].
Regarding `CCCCC[C@@](C)(O)/C=C/[C@H]1C(=O)CC(O)C1C/C=C\CCCC(=O)O` (stereo partly drawn), the ΔTm at Peregrin (Homo sapiens) is -1.97 °C; in assay [1], 0.37 °C.
Turning to `CC1(C)C(=O)N([C@H]2CCc3c(O)cccc32)c2nc(Nc3cccc(CN4CCCC4)c3)ncc21`, the results for the ΔTm (on Peregrin (Homo sapiens); in assay [1]) were -1.23 °C and 9.18 °C, respectively.
Consider `CCOC(=O)c1cc2cc(-c3cc(C(=O)NCc4ccc(C(=O)O)cc4)nn3C)ccc2[nH]1`, for which the ΔTm is -3.42 °C on Peregrin (Homo sapiens) and 0.83 °C in assay [1].
`COc1ccccc1N1CCN(c2ncnc3c2cnn3-c2ccccc2)CC1`: the ΔTm is -1.23 °C on Peregrin (Homo sapiens) and 0.51 °C in assay [1].
Consider `CC1CN(CC(=O)N2CC(C)(C)c3nc(CO)c(Cc4ccc(F)cc4)cc32)C(CN2CCOCC2C)CN1` (stereo not drawn), for which the ΔTm on Peregrin (Homo sapiens) was -1.08 °C; in assay [1], 0.81 °C.
With `O=C1CCCN1CCNc1nc(Nc2ccc(Cl)c(Cl)c2)ncc1C(F)(F)F`, the ΔTm at Peregrin (Homo sapiens) was -1.78 °C; in assay [1], 4.63 °C.
For `CN1Cc2nccc(-c3cn(C)nc3-c3ccc(F)cc3)c2C1=O` the same measures were -1.84 °C and 0.27 °C.

For the origin of these results see ChEMBL document CHEMBL5308504, “Tm Shift (DSF) assay results for EUbOPEN Chemogenomics Library” (2023).
